Read-outs that look alike come from different tables or passages of the source. Where a SMILES comes first, the peptide text is derived from it. Bridges are numbered along the chain shown (N, C = ends). [ ]: non-standard residue; d: D form. Phe(4-Cl) = N[C@@H](Cc1ccc(Cl)cc1)C(=O)O
Experiments:
secretion of insulin = format: in vivo, Male Sprague-Dawley-CD rats
Experimental: (§1) In vivo Bioassay: Male Sprague-Dawley-CD rats weighing 180-200 g housed in temperature and humidity controlled quarters with 14 h light and 10 h dark (light 0700-[…]) were used in all experiments. Animals were fed a standard ration and tap water ad libitum. Experiments were carried out at least 5 days after arrival of rats from the supplier between the hours 1400 and 1600. After ether anesthesia, peptides or saline were administered in a volume of 0.2 ml via the external jugular vein. Animals remained anesthetized until the time of blood collection from the portal vein. Blood collection was performed at various times after administration of the peptide or saline. The blood samples were placed into chilled tubes containing 10 mg EDTA and 50 μl of 2 M Benzamidine per ml of blood.
(§2) All experiments were carried on in a randomized block design. Following analysis of variance difference between treatmments were determined by the multiple range tests of Dunnett and Duncan. Potency values were calculated from four or six point bioassays.

secretion of glucagon = format: in vivo, Male Sprague-Dawley-CD rats
Experimental: as §1, §2

[1] = tested on: secretion of growth hormone
Experimental: GH determinations were performed on tissue culture media utilizing the following reagents: NIAMDD rat GH standard (GH-RP-1), NIAMDD monkey anti-rat GH (GH-Serum-3), and highly purified rat GH for iodination.

[2] = somatostatin = 100, peptide via external jugular vein, blood from portal vein, four or six point bioassays

Row | SMILES | Relative potency to inhibit the secretion of INSULIN (secretion of insulin; rat, in vivo) | Relative potency to inhibit the secretion of GLUCAGON (secretion of glucagon; rat, in vivo) | Relative potency to inhibit the secretion of INSULIN (secretion of insulin; [2]) | Relative potency to inhibit the secretion of GLUCAGON (secretion of glucagon; [2]) | Relative potency to inhibit the secretion of GH (growth hormone) ([1]; somatostatin = 100, GH in tissue culture media, four or six point bioassays) | Relative potency to inhibit the secretion of GH (growth hormone) [1]
1 | C[C@H](N)C(=O)NCC(=O)N[C@H]1CSSC[C@@H](C(=O)O)NC(=O)[C@H](CO)NC(=O)[C@H]([C@@H](C)O)NC(=O)[C@H](Cc2ccc(I)cc2)NC(=O)[C@H]([C@@H](C)O)NC(=O)[C@H](CCCCN)NC(=O)[C@@H](Cc2c[nH]c3ccccc23)NC(=O)[C@H](Cc2ccccc2)NC(=O)[C@H](Cc2ccccc2)NC(=O)[C@H](CC(N)=O)NC(=O)[C@H](CCCCN)NC1=O [[P I Phe^11]--D-Trp^8 --SS] | 33 | 800 |  |  |  | 
2 | C[C@@H](O)[C@@H]1NC(=O)[C@H](CCCCN)NC(=O)[C@@H](Cc2c[nH]c3ccccc23)NC(=O)[C@H](Cc2ccccc2)NC(=O)[C@H](Cc2ccc(Cl)cc2)NC(=O)[C@@H](N)CSSC[C@@H](C(=O)O)NC(=O)[C@H](Cc2ccc(Cl)cc2)NC1=O [Des--AA^1,2,4,5,12,13 --[P Cl Phe^6,11]--D-Trp^8 --SS] (H-C[Phe(4-Cl)]F[dW]KT[Phe(4-Cl)]C-OH; disulfide 1-8) | 27 | > 1 |  |  |  | 
3 | C[C@H](N)C(=O)NCC(=O)N[C@H]1CSSC[C@@H](C(=O)O)NC(=O)[C@H](CO)NC(=O)[C@H]([C@@H](C)O)NC(=O)[C@H](Cc2ccccc2)NC(=O)[C@H]([C@@H](C)O)NC(=O)[C@H](CCCCN)NC(=O)[C@H](Cc2c[nH]c3ccccc23)NC(=O)[C@H](Cc2ccccc2)NC(=O)[C@H](Cc2ccccc2)NC(=O)[C@H](CC(N)=O)NC(=O)[C@H](CCCCN)NC1=O [Somatostatin (SS), Somatostatin, reference compound] |  |  | 100 | 100 | 100 | 
4 | C[C@H](N)C(=O)NCC(=O)N[C@H]1CSSC[C@@H](C(=O)O)NC(=O)[C@H](CO)NC(=O)[C@H]([C@@H](C)O)NC(=O)[C@H](Cc2ccccc2)NC(=O)[C@H]([C@@H](C)O)NC(=O)[C@H](CCCCN)NC(=O)[C@@H](Cc2c[nH]c3ccccc23)NC(=O)[C@H](Cc2ccccc2)NC(=O)[C@H](Cc2ccc(I)cc2)NC(=O)[C@H](CC(N)=O)NC(=O)[C@H](CCCCN)NC1=O [[P I Phe^6]--D-Trp^8 --SS] | 100 | 100 |  |  |  | 
5 | C[C@H](N)C(=O)NCC(=O)N[C@H]1CSSC[C@@H](C(=O)O)NC(=O)[C@H](CO)NC(=O)[C@H]([C@@H](C)O)NC(=O)[C@H](Cc2ccc(Cl)cc2)NC(=O)[C@H]([C@@H](C)O)NC(=O)[C@H](CCCCN)NC(=O)[C@H](Cc2c[nH]c3ccccc23)NC(=O)[C@H](Cc2ccc(Cl)cc2)NC(=O)[C@H](Cc2ccc(Cl)cc2)NC(=O)[C@H](CC(N)=O)NC(=O)[C@H](CCCCN)NC1=O [[P Cl Phe^6,7,11]--SS] | 800 | 900 |  |  |  | 78
6 | C[C@H](N)C(=O)NCC(=O)N[C@H]1CSSC[C@@H](C(=O)O)NC(=O)[C@H](CO)NC(=O)[C@H]([C@@H](C)O)NC(=O)[C@H](Cc2ccc(I)cc2)NC(=O)[C@H]([C@@H](C)O)NC(=O)[C@H](CCCCN)NC(=O)[C@H](Cc2c[nH]c3ccccc23)NC(=O)[C@H](Cc2ccccc2)NC(=O)[C@H](Cc2ccccc2)NC(=O)[C@H](CC(N)=O)NC(=O)[C@H](CCCCN)NC1=O [[P I Phe^11]--SS] | 950 | 900 |  |  |  | 100
7 | C[C@H](N)C(=O)NCC(=O)N[C@H]1CSSC[C@@H](C(=O)O)NC(=O)[C@H](CO)NC(=O)[C@H]([C@@H](C)O)NC(=O)[C@H](Cc2ccccc2)NC(=O)[C@H]([C@@H](C)O)NC(=O)[C@H](CCCCN)NC(=O)[C@H](Cc2c[nH]c3ccccc23)NC(=O)[C@H](Cc2ccccc2)NC(=O)[C@H](Cc2ccc(Cl)cc2)NC(=O)[C@H](CC(N)=O)NC(=O)[C@H](CCCCN)NC1=O [[P Cl Phe^6]--SS] | 100 | 100 |  |  |  | 
8 | C[C@H](N)C(=O)NCC(=O)N[C@H]1CSSC[C@@H](C(=O)O)NC(=O)[C@H](CO)NC(=O)[C@H]([C@@H](C)O)NC(=O)[C@H](Cc2ccccc2)NC(=O)[C@H]([C@@H](C)O)NC(=O)[C@H](CCCCN)NC(=O)[C@@H](Cc2c[nH]c3ccccc23)NC(=O)[C@H](Cc2ccc(I)cc2)NC(=O)[C@H](Cc2ccccc2)NC(=O)[C@H](CC(N)=O)NC(=O)[C@H](CCCCN)NC1=O [[P I Phe^7]--D-Trp^8 --SS] | 100 | 100 |  |  |  | 
9 | C[C@H](N)C(=O)NCC(=O)N[C@H]1CSSC[C@@H](C(=O)O)NC(=O)[C@@H](CO)NC(=O)[C@H]([C@@H](C)O)NC(=O)[C@H](Cc2ccc(Cl)cc2)NC(=O)[C@H]([C@@H](C)O)NC(=O)[C@H](CCCCN)NC(=O)[C@@H](Cc2c[nH]c3ccccc23)NC(=O)[C@H](Cc2ccc(Cl)cc2)NC(=O)[C@H](Cc2ccc(Cl)cc2)NC(=O)[C@H](CCCCN)NC1=O [Des--Asn^5 --[P Cl Phe^6,7,11]--D-Trp^8 --D--Ser^13 --SS] (H-AGCK[Phe(4-Cl)][Phe(4-Cl)][dW]KT[Phe(4-Cl)]T[dS]C-OH; disulfide 3-13) | 127 | > 1 |  |  |  | 

Source: patent US4211693A, “Peptides with para-substituted phenylalanine” (The Salk Institute for Biological Studies, priority 1978, dated 1980)
